Source: PubChem BioAssay AID248 (DTP/NCI, 2004)
Values joined by “and” are separate entries in the source; they are usually repeats but may differ in a detail not shown here. Equal entries are not always repeated. Toxic doses and inconclusive results are not listed. Cut-off read from the data, not from the text of the source: active = T/C of 150% or more; inactive = T/C below 125%.

Tested on: L1210 leukemia ip in BDF1 mice, survival T/C
Assay: NCI In Vivo Anticancer Drug Screen. Data for tumor model L1210 Leukemia (intraperitoneal) in B6D2F1 (BDF1) mice
Settings: endpoint: mean survival time, higher = longer survival
In short: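 Transplanted-tumor mice were given test agent; controls received vehicle only. Survival readings from the two groups were divided (treated over control).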

[1] = dose: 100.0 mg/kg/injection, schedule: Q01DX009 (ip), vehicle: Klucel (hydroxypropylcellulose) (HPC)
[2] = dose: 200.0 mg/kg/injection, schedule: Q01DX009 (ip), vehicle: Klucel (hydroxypropylcellulose) (HPC)
[3] = dose: 400.0 mg/kg/injection, schedule: Q01DX009 (ip), vehicle: Klucel (hydroxypropylcellulose) (HPC)
[4] = dose: 100.0 mg/kg/injection, schedule: Q04DX002 (ip), vehicle: Klucel (hydroxypropylcellulose) (HPC)
[5] = dose: 200.0 mg/kg/injection, schedule: Q04DX002 (ip), vehicle: Klucel (hydroxypropylcellulose) (HPC)
[6] = dose: 400.0 mg/kg/injection, schedule: Q04DX002 (ip), vehicle: Klucel (hydroxypropylcellulose) (HPC)
[7] = dose: 50.0 mg/kg/injection, schedule: Q01DX001 (ip), vehicle: saline
[8] = dose: 100.0 mg/kg/injection, schedule: Q01DX001 (ip), vehicle: saline
[9] = dose: 200.0 mg/kg/injection, schedule: Q01DX001 (ip), vehicle: saline
[10] = dose: 50.0 mg/kg/injection, schedule: Q01DX001 (ip), vehicle: carboxymethylcellulose (CMC)
[11] = dose: 100.0 mg/kg/injection, schedule: Q01DX001 (ip), vehicle: carboxymethylcellulose (CMC)
[12] = dose: 200.0 mg/kg/injection, schedule: Q01DX001 (ip), vehicle: carboxymethylcellulose (CMC)
[13] = dose: 400.0 mg/kg/injection, schedule: Q01DX001 (ip), vehicle: carboxymethylcellulose (CMC)
[14] = dose: 75.0 mg/kg/injection, schedule: Q04DX003 (ip), vehicle: saline
[15] = dose: 150.0 mg/kg/injection, schedule: Q04DX003 (ip), vehicle: saline
[16] = dose: 300.0 mg/kg/injection, schedule: Q04DX003 (ip), vehicle: saline
[17] = dose: 400.0 mg/kg/injection, schedule: Q01DX001 (ip), vehicle: saline

Measured: T/C

NCCOS(=O)(=O)O
inactive: [1] 105 % of control | dose: 100.0 mg/kg/injection, schedule: Q01DX009 (ip), vehicle: saline with Tween-80 92 % of control | [2] 101 % of control | dose: 200.0 mg/kg/injection, schedule: Q01DX009 (ip), vehicle: saline with Tween-80 108 % of control | [3] 100 % of control | dose: 400.0 mg/kg/injection, schedule: Q01DX009 (ip), vehicle: saline with Tween-80 99 % of control

COc1ccc(NC(=O)COc2ccc(Cl)cc2Cl)cc1
inactive: [4] 108 % of control | [5] 92 % of control | [6] 94 % of control

COc1ccc(C(=O)Nc2cccc3ccccc23)cc1
inactive: dose: 100.0 mg/kg/injection, schedule: Q01DX009 (ip), vehicle: carboxymethylcellulose (CMC) 95 % of control | [4] 108 % of control | dose: 100.0 mg/kg/injection, schedule: Q04DX002 (ip), vehicle: carboxymethylcellulose (CMC) 93 % of control and 97 % of control | dose: 100.0 mg/kg/injection, schedule: Q04DX003 (ip), vehicle: carboxymethylcellulose (CMC) 103 % of control | dose: 200.0 mg/kg/injection, schedule: Q01DX009 (ip), vehicle: carboxymethylcellulose (CMC) 98 % of control and 90 % of control | [5] 102 % of control | dose: 200.0 mg/kg/injection, schedule: Q04DX002 (ip), vehicle: carboxymethylcellulose (CMC) 95 % of control and 103 % of control | dose: 200.0 mg/kg/injection, schedule: Q04DX003 (ip), vehicle: carboxymethylcellulose (CMC) 103 % of control | dose: 400.0 mg/kg/injection, schedule: Q01DX009 (ip), vehicle: carboxymethylcellulose (CMC) 93 % of control and 87 % of control | [6] 112 % of control | dose: 400.0 mg/kg/injection, schedule: Q04DX002 (ip), vehicle: carboxymethylcellulose (CMC) 100 % of control and 101 % of control | dose: 400.0 mg/kg/injection, schedule: Q04DX003 (ip), vehicle: carboxymethylcellulose (CMC) 97 % of control

Nc1ncnc2c1ncn2C1SC(CO)C(O)C1O (stereo not drawn)
inactive: [7] 93 % of control and 103 % of control | [8] 102 % of control and 105 % of control | dose: 100.0 mg/kg/injection, schedule: Q01DX005 (ip), vehicle: saline 108 % of control and 95 % of control | [9] 104 % of control and 100 % of control | dose: 200.0 mg/kg/injection, schedule: Q01DX005 (ip), vehicle: saline 109 % of control and 95 % of control

Clc1ccccc1/C=N/Nc1nnc(N/N=C/c2ccccc2Cl)c2ccccc12
inactive: [10] 95 % of control | [11] 89 % of control | [12] 89 % of control | [13] 89 % of control

O=C(O)CC1CCCNC1 (stereo not drawn)
inactive: [14] 100 % of control | [15] 103 % of control | [16] 101 % of control

NC(=S)N=Nc1c(O)cc(O)c2[nH]c(=O)ccc12
inactive: dose: 5.0 mg/kg/injection, schedule: Q01DX001 (ip), vehicle: saline 101 % of control | dose: 10.0 mg/kg/injection, schedule: Q01DX001 (ip), vehicle: saline 101 % of control | dose: 20.0 mg/kg/injection, schedule: Q01DX001 (ip), vehicle: saline 103 % of control | dose: 40.0 mg/kg/injection, schedule: Q01DX001 (ip), vehicle: saline 105 % of control | dose: 80.0 mg/kg/injection, schedule: Q01DX001 (ip), vehicle: saline 108 % of control

CC(C)(C)c1cc(/C=N/NC(=O)COCC(=O)N/N=C/c2cc(C(C)(C)C)c(O)c(C(C)(C)C)c2)cc(C(C)(C)C)c1O
inactive: [1] 95 % of control | [2] 103 % of control | [3] 92 % of control

COc1ccc2c(c1)CCC1C2CCC2C(O)CCCC21 (stereo not drawn)
inactive: dose: 50.0 mg/kg/injection, schedule: Q01DX001 (ip), vehicle: Klucel (hydroxypropylcellulose) (HPC) 95 % of control | dose: 100.0 mg/kg/injection, schedule: Q01DX001 (ip), vehicle: Klucel (hydroxypropylcellulose) (HPC) 93 % of control | dose: 200.0 mg/kg/injection, schedule: Q01DX001 (ip), vehicle: Klucel (hydroxypropylcellulose) (HPC) 87 % of control

COc1cccc(NC(=O)NCCN(C)c2ccccc2)c1
inactive: [1] 104 % of control | [2] 88 % of control | [3] 92 % of control

Clc1ccc2c(NC3CCC(NC4CCCCC4)CC3)ccnc2c1 (stereo not drawn)
inactive: dose: 7.0 mg/kg/injection, schedule: Q01DX Z (ip), vehicle: carboxymethylcellulose (CMC) 102 % of control | dose: 10.0 mg/kg/injection, schedule: Q01DX Z (ip), vehicle: carboxymethylcellulose (CMC) 96 % of control | dose: 16.0 mg/kg/injection, schedule: Q01DX Z (ip), vehicle: carboxymethylcellulose (CMC) 98 % of control

Cc1cc(-c2ccc(NC(=O)Nc3cccc(C4=NCCN4)c3)c(C)c2)ccc1NC(=O)Nc1cccc(C2=NCCN2)c1
inactive: dose: 31.2 mg/kg/injection, schedule: Q01DX Z (ip), vehicle: methylcellulose (MC) 97 % of control | dose: 62.5 mg/kg/injection, schedule: Q01DX Z (ip), vehicle: methylcellulose (MC) 103 % of control | dose: 125.0 mg/kg/injection, schedule: Q01DX Z (ip), vehicle: methylcellulose (MC) 103 % of control

CCCCN(CCCC)CCCNC(=S)Nc1ccccc1
inactive: [1] 94 % of control | [2] 100 % of control

COc1cc2ccc(C(C)N)cc2cc1OC (stereo not drawn)
inactive: dose: 50.0 mg/kg/injection, schedule: Q01DX009 (ip), vehicle: saline 100 % of control | dose: 100.0 mg/kg/injection, schedule: Q01DX009 (ip), vehicle: saline 105 % of control | dose: 100.0 mg/kg/injection, schedule: Q04DX003 (ip), vehicle: saline 110 % of control | dose: 200.0 mg/kg/injection, schedule: Q01DX009 (ip), vehicle: saline 103 % of control | dose: 200.0 mg/kg/injection, schedule: Q04DX003 (ip), vehicle: saline 117 % of control

CCOC(=O)n1[nH][nH]c2c(c(=O)n(C)c(=O)n2C)n1C(=O)OCC
inactive: [14] 95 % of control | [15] 95 % of control | [16] 94 % of control

O=C1CC(Cl)C(=O)N1c1ccccc1 (stereo not drawn)
inactive: dose: 75.0 mg/kg/injection, schedule: Q01DX009 (ip), vehicle: saline with Tween-80 112 % of control | dose: 75.0 mg/kg/injection, schedule: Q04DX003 (ip), vehicle: saline with Tween-80 96 % of control | dose: 150.0 mg/kg/injection, schedule: Q01DX009 (ip), vehicle: saline with Tween-80 102 % of control | dose: 150.0 mg/kg/injection, schedule: Q04DX003 (ip), vehicle: saline with Tween-80 102 % of control | dose: 300.0 mg/kg/injection, schedule: Q04DX003 (ip), vehicle: saline with Tween-80 101 % of control

O=C(O)c1cccn1-c1ccccc1
inactive: dose: 100.0 mg/kg/injection, schedule: Q01DX001 (ip), vehicle: saline with Tween-80 102 % of control | dose: 100.0 mg/kg/injection, schedule: Q04DX003 (ip), vehicle: other 96 % of control | dose: 200.0 mg/kg/injection, schedule: Q01DX001 (ip), vehicle: saline with Tween-80 103 % of control | dose: 200.0 mg/kg/injection, schedule: Q04DX003 (ip), vehicle: other 101 % of control | dose: 400.0 mg/kg/injection, schedule: Q01DX001 (ip), vehicle: saline with Tween-80 96 % of control | dose: 400.0 mg/kg/injection, schedule: Q04DX003 (ip), vehicle: other 89 % of control

C=C(Cl)CSC1=NCCS1
inactive: dose: 100.0 mg/kg/injection, schedule: Q04DX002 (sc), vehicle: olive oil, sesame oil, peanut oil 90 % of control | dose: 200.0 mg/kg/injection, schedule: Q04DX002 (sc), vehicle: olive oil, sesame oil, peanut oil 100 % of control | dose: 400.0 mg/kg/injection, schedule: Q04DX002 (sc), vehicle: olive oil, sesame oil, peanut oil 100 % of control

CC1(C)SC(C)(C)N(C=O)C1C(=O)O (stereo not drawn)
inactive: [8] 94 % of control | [1] 93 % of control | dose: 100.0 mg/kg/injection, schedule: Q04DX003 (ip), vehicle: Klucel (hydroxypropylcellulose) (HPC) 105 % of control | [9] 94 % of control | [2] 94 % of control | dose: 200.0 mg/kg/injection, schedule: Q04DX003 (ip), vehicle: Klucel (hydroxypropylcellulose) (HPC) 95 % of control | [17] 110 % of control | [3] 96 % of control | dose: 400.0 mg/kg/injection, schedule: Q04DX003 (ip), vehicle: Klucel (hydroxypropylcellulose) (HPC) 97 % of control

O=C(O)C1(NO)CCCC1
inactive: [7] 102 % of control | [8] 121 % of control | [17] 110 % of control

Nc1cc(Cl)ccc1Nc1ccccc1
inactive: [10] 101 % of control | [11] 109 % of control | [12] 101 % of control | [13] 101 % of control
